In patent USRE39591E1, “6-O-substituted ketolides having antibacterial activity” (Abbott Laboratories, priority 1996, dated 2007):

Test system: up to 32 different microorganisms
Assay: in vitro antibacterial activity (MIC), agar dilution on Brain Heart Infusion (BHI) agar with Steers replicator
Type: cell-based
Details: unit assumed
Method: Representative compounds of the present invention were assayed in vitro for antibacterial activity as follows: Twelve petri dishes containing successive aqueous dilutions of the test compound mixed with 10 mL of sterilized Brain Heart Infusion (BHI) agar (Difco 0148-01-5) were prepared. Each plate was inoculated with 1:100 (or 1:10 for slow-growing strains, such as Micrococcus and Streptococcus) dilutions of up to 32 different microorganisms, using a Steers replicator block. The inoculated plates were incubated at 35°-37° C. for 20 to 24 hours. In addition, a control plate, using BHI agar containing no test compound, was prepared and incubated at the beginning and end of each test.
An additional plate containing a compound having known susceptibility patterns for the organisms being tested and belonging to the same antibiotic class as the test compound was also prepared and incubated as a further control, as well as to provide test-to-test comparability. Erythromycin A was used for this purpose.
After incubation, each plate was visually inspected. The minimum inhibitory concentration (MIC) was defined as the lowest concentration of drug yielding no growth, a slight haze, or sparsely isolated colonies on the inoculum spot as compared to the growth control.

[1] = Candida albicans CCH 442 (code TT)
[2] = Enterococcus faecism ATCC 8043 (code II)
[3] = Escherichia coli DC-2 (code SS)
[4] = Escherichia coli JUHL (code QQ)
[5] = Micrococcus luteus ATCC 4698 (code PP)
[6] = Micrococcus luteus ATCC 9341 (code OO)
[7] = Mycobacterium smegmatis ATCC 114 (code UU)
[8] = Nocardia Asteroides ATCC9970 (code VV)
[9] = Staphylococcus aureus 1775 (code GG)
[10] = Staphylococcus aureus A5177 (code BB)
[11] = Staphylococcus aureus A-5278 (code CC)
[12] = Staphylococcus aureus ATCC 6538P (code AA)
[13] = Staphylococcus aureus CMX 553 (code FF)
[14] = Staphylococcus aureus CMX 642A (code DD)
[15] = Staphylococcus aureus NCTC10649M (code EE)
[16] = Staphylococcus epidermidis 3519 (code HH)
[17] = Streptococcus agalactiae CMX 508 (code KK)
[18] = Streptococcus bovis A-5169 (code JJ)
[19] = Streptococcus pyogenes 930 (code MM)
[20] = Streptococcus pyogenes EES61 (code LL)
[21] = Streptococcus pyogenes PIU 2548 (code NN)
[22] = Haemophilis influenzae DILL AMP R (code WW)
[23] = Streptococcus Pneumonia 5649 (code ZZA)
[24] = Streptococcus Pneumonia 5979 (code ZZ)
[25] = Streptococcus Pneumonia ATCC6303 (code XX)
[26] = Streptococcus Pneumonia GYR 1171 (code YY)

CCCO[C@@]1(C)C[C@@H](C)C(=O)[C@H](C)[C@@H](O)[C@](C)(O)[C@@H](CC)OC(=O)[C@H](C)C(=O)[C@H](C)[C@H]1O[C@@H]1O[C@H](C)C[C@H](N(C)C)[C@H]1O [Example 3, Compound of Formula (VIII): X is O, R is propyl]
MIC [1]: > 100 µg/mL
MIC [2]: 25 µg/mL
MIC [3]: > 100 µg/mL
MIC [4]: > 100 µg/mL
MIC (Escherichia coli SS (code RR)): 50 µg/mL
MIC [5]: 100 µg/mL
MIC [6]: 12.5 µg/mL
MIC [7]: > 100 µg/mL
MIC [8]: 12.5 µg/mL
MIC [9]: > 100 µg/mL
MIC [10]: > 100 µg/mL
MIC [11]: > 100 µg/mL
MIC [12]: 25 µg/mL
MIC [13]: 25 µg/mL
MIC [14]: 100 µg/mL
MIC [15]: 25 µg/mL
MIC [16]: 50 µg/mL
MIC [17]: 25 µg/mL
MIC [18]: 25 µg/mL
MIC [19]: > 100 µg/mL
MIC [20]: 100 µg/mL
MIC [21]: 100 µg/mL

CC[C@H]1OC(=O)[C@H](C)C(=O)[C@H](C)[C@@H](O[C@@H]2O[C@H](C)C[C@H](N(C)C)[C@H]2O)[C@@](C)(OCC=NO)C[C@@H](C)C(=O)[C@H](C)[C@@H](O)[C@]1(C)O [Example 5, Compound of Formula (VIII): X is O, R is —CH2CH═NOH]
MIC [1]: > 100 µg/mL
MIC [2]: 6.2 µg/mL
MIC [3]: > 100 µg/mL
MIC [4]: > 100 µg/mL
MIC (Escherichia coli SS (code RR)): 6.2 µg/mL
MIC [22]: > 128 µg/mL
MIC [5]: 6.2 µg/mL
MIC [6]: 0.78 µg/mL
MIC [7]: > 100 µg/mL
MIC [8]: 6.2 µg/mL
MIC [9]: > 100 µg/mL
MIC [10]: 6.2 µg/mL
MIC [11]: > 100 µg/mL
MIC [12]: 6.2 µg/mL
MIC [13]: 12.5 µg/mL
MIC [14]: 12.5 µg/mL
MIC [15]: 12.5 µg/mL
MIC [16]: 6.2 µg/mL
MIC [23]: 16 µg/mL
MIC [24]: > 128 µg/mL
MIC [25]: 8 µg/mL
MIC [26]: 4 µg/mL
MIC [17]: 1.56 µg/mL
MIC [18]: 1.56 µg/mL
MIC [19]: > 100 µg/mL
MIC [20]: 3.1 µg/mL
MIC [21]: 6.2 µg/mL

CC[C@H]1OC(=O)[C@H](C)C(=O)[C@H](C)[C@@H](O[C@@H]2O[C@H](C)C[C@H](N(C)C)[C@H]2O)[C@@](C)(OCC#N)C[C@@H](C)C(=O)[C@H](C)[C@@H](O)[C@]1(C)O [Example 7, Compound of Formula (VIII): X is O, R is —CH2CN]
MIC [1]: > 100 µg/mL
MIC [2]: 1.56 µg/mL
MIC [3]: > 100 µg/mL
MIC [4]: > 100 µg/mL
MIC (Escherichia coli SS (code RR)): 3.1 µg/mL
MIC [5]: 1.56 µg/mL
MIC [6]: 0.39 µg/mL
MIC [7]: > 100 µg/mL
MIC [8]: 0.78 µg/mL
MIC [9]: > 100 µg/mL
MIC [10]: 3.1 µg/mL
MIC [11]: > 100 µg/mL
MIC [12]: 3.1 µg/mL
MIC [13]: 3.1 µg/mL
MIC [14]: 3.1 µg/mL
MIC [15]: 3.1 µg/mL
MIC [16]: 3.1 µg/mL
MIC [17]: 0.78 µg/mL
MIC [18]: 0.78 µg/mL
MIC [19]: > 100 µg/mL
MIC [20]: 1.56 µg/mL
MIC [21]: 3.1 µg/mL

CC[C@H]1OC(=O)[C@H](C)C(=O)[C@H](C)[C@@H](O[C@@H]2O[C@H](C)C[C@H](N(C)C)[C@H]2O)[C@@](C)(OCCN)C[C@@H](C)C(=O)[C@H](C)[C@@H](O)[C@]1(C)O [Example 8, Compound of Formula (VIII): X is O, R is —CH2CH2NH2]
MIC [1]: > 100 µg/mL
MIC [2]: 6.2 µg/mL
MIC [3]: > 100 µg/mL
MIC [4]: > 100 µg/mL
MIC (Escherichia coli SS (code RR)): 6.2 µg/mL
MIC [5]: 12.5 µg/mL
MIC [6]: 6.2 µg/mL
MIC [7]: > 100 µg/mL
MIC [8]: 12.5 µg/mL
MIC [9]: > 100 µg/mL
MIC [10]: 25 µg/mL
MIC [11]: > 100 µg/mL
MIC [12]: 25 µg/mL
MIC [13]: 50 µg/mL
MIC [14]: 6.2 µg/mL
MIC [15]: 6.2 µg/mL
MIC [16]: 100 µg/mL
MIC [17]: 6.2 µg/mL
MIC [18]: 3.1 µg/mL
MIC [19]: > 100 µg/mL
MIC [20]: 6.2 µg/mL
MIC [21]: 12.5 µg/mL

CC[C@H]1OC(=O)[C@H](C)C(=O)[C@H](C)[C@@H](O[C@@H]2O[C@H](C)C[C@H](N(C)C)[C@H]2O)[C@@](C)(OCCNCc2ccccc2)C[C@@H](C)C(=O)[C@H](C)[C@@H](O)[C@]1(C)O [Example 9, Compound of Formula (VIII): X is O, R is —CH2CH2NHCH2-Phenyl]
MIC [1]: > 100 µg/mL
MIC [2]: 0.78 µg/mL
MIC [3]: 25 µg/mL
MIC [4]: 25 µg/mL
MIC (Escherichia coli SS (code RR)): 0.39 µg/mL
MIC [22]: 16 µg/mL
MIC [5]: 0.78 µg/mL
MIC [6]: 0.2 µg/mL
MIC [7]: 6.2 µg/mL
MIC [8]: 0.2 µg/mL
MIC [9]: > 100 µg/mL
MIC [10]: 1.56 µg/mL
MIC [11]: > 100 µg/mL
MIC [12]: 3.1 µg/mL
MIC [13]: 3.1 µg/mL
MIC [14]: 6.2 µg/mL
MIC [15]: 0.78 µg/mL
MIC [16]: 3.1 µg/mL
MIC [23]: 4 µg/mL
MIC [24]: > 64 µg/mL
MIC [25]: 0.25 µg/mL
MIC [26]: 0.25 µg/mL
MIC [17]: 0.39 µg/mL
MIC [18]: 0.05 µg/mL
MIC [19]: > 100 µg/mL
MIC [20]: 0.39 µg/mL
MIC [21]: 0.78 µg/mL
